Reference: patent US20240408122A1, “PHARMACEUTICAL COMPOSITION FOR PREVENTION OR TREATMENT OF METABOLIC DISEASE COMPRISING LYSOPHOSPHOLIPID” (SEOUL NATIONAL UNIVERSITY R&DB FOUNDATION, priority 2021, published 2024)

How the values were obtained:
[1] = tested on: C3H10T1/2 adipocytes; assay: Immunoblot analysis of C3H10T1/2 adipocytes (PKA signaling, mitochondrial enzymes); format: cell-based; conditions: for levels of phosphorylated HSL, CREB and PKA substrates / mitochondrial enzymes, including MCAD, ATP5A, UQCRC2, SDHB, NDUFB8, and COXIV: 1 μM; for levels of phosphorylated HSL, CREB and PKA substrates: 24 or 48 hours, vs vehicle, FIG. 1A; for mitochondrial enzymes, including MCAD, ATP5A, UQCRC2, SDHB, NDUFB8, and COXIV: long-term treatment (48 hours), FIG. 1B
Description: (§1) C3H10T1/2 cells were purchased from the American Type Culture Collection (ATCC), and in vitro adipocyte experiments were performed using these cells, which were cultured in DMEM (Welgene) supplemented with 10% FBS (Gibco) and 1% P/S at 37° C. in a humidified atmosphere of 5% CO2. To prepare fully differentiated C3H10T1/2 adipocytes, confluent C3H10T1/2 cells were exposed to BMP4 (R&D system, 20 ng/ml) for 2 days, and induced in a differentiation medium containing IBMX (isobutylmethylxanthine, Cayman, 0.5 mM), dexamethasone (Cayman, 1 μM), insulin (Sigma, 10 μg/mL), indomethacin (Cayman, 0.125 mM), and triiodothyronine (T3, Cayman, 1 nM) for 3 days, then exposed to a maintenance medium containing insulin (1 μg/mL) and T3 (1 nM) for 3 days. To evaluate in vitro effects of lysoplasmalogen, the fully differentiated C3H10T1/2 cells were treated with vehicle control, LPE P-18:0 (1 μM) or LPC P-18:0 (1 μM), LPC P-16:0. (10 μM) or isoproterenol (10 μM) for an indicated time.
(§2) BAT, iWAT and gWAT of mice fed a HFD and administered vehicle control or LPE P-18:0 intraperitoneally were homogenized using the tacoPrep Bead Beater homogenization system in a PROPREP protein extraction solution (iNtRON Biotechnology) containing SIGMAFAST Protease Inhibitor Cocktail (Sigma) and PhoSTOP phosphatase inhibitor (Roche). C3H10T1/2 adipocytes treated with vehicle control, LPE P-18:0 (1 μM) or LPC P-18:0 (1 μM), LPC P-16:0 (10 µM) or isoproterenol (10 μM) were lysed in RIPA Lysis and Extraction Buffer (Thermo Fisher Scientific) containing SIGMAFAST protease inhibitor cocktail (Sigma) and PhoSTOP phosphatase inhibitor (Roche). The extracted protein concentration was quantified by BCA analysis and measured by spectrophotometry at 562 nm (MultiSkan GO, Thermo Fisher Scientific). Proteins were denatured in an SDS sample buffer at 95° C. for 5 min, separated in SDS-PAGE gel, and transferred to a PVDF membrane (Bio-Rad). The membrane was blocked with BSA in 5% non-fat dry milk or TBST (Tris-buffered saline containing 0.1% Tween 20) and incubated overnight along with the primary antibody at 4° C., then cultured with horseradish peroxidase (HRP)-conjugated secondary antibody for 1 hour at room temperature. The primary antibody used for Western blot analysis are listed in Reagents or Resources. Protein expression was detected by a Fusion Solo chemiluminescence imaging system (Vilber Lourmat) and analyzed with EvolutionCapt software (version 17.03). Immunoblots were quantified with National Institutes of Health ImageJ software (version 1.52a).

[2] = tested on: C3H10T1/2 adipocytes; assay: Oxygen consumption rate (Seahorse XF, Cell Mito Stress Test); format: cell-based; conditions: 1 μM; FIGS. 2B and 2C
Description: as §1
Oxygen consumption rates (OCRs) were measured with a Seahorse XF Analyzer (Agilent). The differentiated C3H10T1/2 adipocytes […] treated with LPC P-18:0 (1 μM), LPE P-18:0 or vehicle were washed, and maintained in an assay medium (XF DMEM basal medium, pH 7.4 (Agilent)) supplemented with D-(+)-glucose (25 mM) and L-glutamine (4 mM). The XFp Cell Mito Stress Test Kit (Agilent) was used at concentrations of 2.5 μM oligomycin, 0.5 μM carbonyl cyanide-4-(trifluoromethoxy) phenylhydrazone (FCCP) and 0.5 µM rotenone/antimycin A. Basal and maximal OCRs were calculated by subtracting non-mitochondrial respiration. The ATP production rate was calculated by subtracting the OCR induced by oligomycin A from the basal OCR. Spare respiratory capacity was calculated by subtracting baseline OCR from the maximal OCR. The OCR was normalized to protein concentration. Data were analyzed using Agilent Wave software (version 2.6.0.31).

[3] = tested on: C3H10T1/2 adipocytes; assay: Quantification of intracellular cAMP level (Direct cAMP ELISA); format: cell-based; conditions: 1 μM, 24 hours; FIG. 2A
Description: as §1, with “To evaluate in vitro effects of lysoplasmalogen, the fully differentiated C3H10T1/2 cells were treated with vehicle control, LPE P-18:0 (1 μM) or LPC P-18:0 (1 μM), LPC P-16:0. (10 μM) or isoproterenol (10 μM) for an indicated time.” left out
To measure intracellular CAMP levels in the differentiated C3H10T1/2 adipocytes treated with LPC P-18:0 (1 μM), LPE P-18:0 (1 μM) or isoproterenol (10 μM), The Direct CAMP ELISA Kit (Enzo) was used according to the manufacturer's instructions. […] The absorbance of the plate was measured at 405 nm, and the calculated absorbance was converted into pmol/ml of CAMP using AssayFit Pro (v1.31), and normalized to protein concentration measured with the Pierce BCA Protein Assay Kit (Thermo Fisher Scientific).

[4] = tested on: HFD-fed mice; assay: Intraperitoneal insulin tolerance test (ITT); format: in vivo; conditions: 200 μg/kg/day intraperitoneally for 2 weeks, insulin 0.75 units/kg i.p., FIG. 5E
Description: (§3) For the diet-induced obesity model, 8-week-old mice were fed a HFD (60% fat, Research Diets, cat #D12492) for 8 weeks. Standardized rodent pellet feed (NCD, Purina, cat #38057) was used as the control feed. Energy expenditure (EE) was estimated by an indirect calorimeter (PhenoMaster, TSE Systems, Germany). Body compositions were measured by nuclear magnetic resonance (NMR) scanning EchoMRI-700 (Echo Medical Systems). To investigate effects of treatment with LPE P-18:0, the mice were fed a HFD for 8 weeks and injected intraperitoneally with LPE P-18:0 (Avanti Polar Lipids, 200 μg/kg/day, cat #852471P) or vehicle for 2 weeks.
For the insulin tolerance test, the mice were fasted for 6 hours before the test, was injected intraperitoneally with insulin (Sigma, 0.75 units/kg body weight, cat #91077C-1G), and blood glucose was measured at a designated time interval.

[5] = tested on: HFD-fed mice; assay: Glucose tolerance test in HFD-fed mice; format: in vivo; conditions: 200 μg/kg/day intraperitoneally for 2 weeks, FIG. 4
Description: as §3

[6] = tested on: HFD-fed mice; assay: Body weight and body composition in diet-induced obesity model; format: in vivo; conditions: 200 μg/kg/day intraperitoneally for 2 weeks, FIG. 5
Description: as §3

[7] = tested on: adipose tissues of HFD-fed mice; assay: Immunoblot analysis of BAT, iWAT and gWAT of HFD-fed mice; format: in vivo; conditions: 200 μg/kg/day intraperitoneally for 2 weeks, FIGS. 3A, 3B
Description: as §2, with “Proteins were denatured in an SDS sample buffer at 95° C. for 5 min, separated in SDS-PAGE gel, and transferred to a PVDF membrane (Bio-Rad). The membrane was blocked with BSA in 5% non-fat dry milk or TBST (Tris-buffered saline containing 0.1% Tween 20) and incubated overnight along with the primary antibody at 4° C., then cultured with horseradish peroxidase (HRP)-conjugated secondary antibody for 1 hour at room temperature. The primary antibody used for Western blot analysis are listed in Reagents or Resources.” left out
For the diet-induced obesity model, 8-week-old mice were fed a HFD (60% fat, Research Diets, cat #D12492) for 8 weeks. […] Body compositions were measured by nuclear magnetic resonance (NMR) scanning EchoMRI-700 (Echo Medical Systems). […]

[8] = tested on: HFD-fed mice; assay: Indirect calorimetry analysis in HFD-fed mice; format: in vivo; conditions: 200 μg/kg/day intraperitoneally for 2 weeks
Description: as §3

Compound	levels of phosphorylated HSL and CREB ([1]; 10 μM, 4 hours, vs vehicle (4 mg/mL fatty acid-free BSA), FIG. 6)	levels of phosphorylated HSL, CREB and PKA substrates [1]	mitochondrial enzymes, including MCAD, ATP5A, UQCRC2, SDHB, NDUFB8, and COXIV [1]	ATP production rate [2]	maximum respiration rate [2]	spare respiratory capacity [2]	intracellular cAMP levels [3]	insulin tolerance [4]	glucose tolerance [5]	body fat mass [6]	body weight [6]	PKA signaling and mitochondrial activity in the adipose tissues [7]	Food intake [8]	activity [8]	VO2 ([8]; FIGS. 5C, 5D)	energy expenditure ([8]; FIGS. 5C, 5D)
CCCCCCCCCCCCCC/C=C\OC[C@@H](O)COP(=O)([O-])OCC[N+](C)(C)C [LPC P-16:0]	significant increase															
CCCCCCCCCCCCCCCC/C=C\OC[C@@H](O)COP(=O)([O-])OCC[N+](C)(C)C [LPC P-18:0]		significant increase	significant upregulation	increase	increase	increase	increase									
CCCCCCCCCCCCCCCC/C=C\OC[C@@H](O)COP(=O)(O)OCCN [LPE P-18:0]		significant increase	significant upregulation	increase	increase	increase	increase	decreased	improves	decreased	decreased	upregulates	decreased	increased	increased	increased
